Assay results: publication PMC6017736, “Indole-3-Carbonitriles as DYRK1A Inhibitors by Fragment-Based Drug Design” (Molecules : A Journal of Synthetic Chemistry and Natural …, 2018)

Tests used:
DYRK1A [1] = target: T1, DYRK1A (Homo sapiens, UniProt Q13627); experiment: Protein kinase assay ([γ-33P]-ATP, RS peptide substrate), DYRK1A; format: biochemical; details: for IC50: 15 µM ATP, read-out: IC50 DYRK 1A
DYRK1B [2] = target: DYRK1B (Homo sapiens, UniProt Q9Y463); experiment: Protein kinase assay ([γ-33P]-ATP, RS peptide substrate), DYRK1B; format: biochemical; details: 15 µM ATP; read-out: IC50 DYRK 1B
Protocol: (§1) DYRK1A, 1B, 2, 3 (human, recombinant, expressed in E. coli as GST fusion proteins) and CLK1, 2, 3, and 4 (mouse, recombinant, expressed in E. coli as GST fusion proteins) were assayed as described for GSK-3 in Buffer A (supplemented extemporaneously with 0.15 mg BSA/mL + 1 mM DTT) with 1 µg of RS peptide ([…]) as a substrate.

DYRK2 = target: T2, DYRK2 (Homo sapiens, UniProt Q92630); experiment: Protein kinase assay ([γ-33P]-ATP, RS peptide substrate), DYRK2; format: biochemical; details: 10 µM compound; read-out: Inhibition at 10 µM DYRK2 (class symbol)
T2 sequence (Q92630 1-601): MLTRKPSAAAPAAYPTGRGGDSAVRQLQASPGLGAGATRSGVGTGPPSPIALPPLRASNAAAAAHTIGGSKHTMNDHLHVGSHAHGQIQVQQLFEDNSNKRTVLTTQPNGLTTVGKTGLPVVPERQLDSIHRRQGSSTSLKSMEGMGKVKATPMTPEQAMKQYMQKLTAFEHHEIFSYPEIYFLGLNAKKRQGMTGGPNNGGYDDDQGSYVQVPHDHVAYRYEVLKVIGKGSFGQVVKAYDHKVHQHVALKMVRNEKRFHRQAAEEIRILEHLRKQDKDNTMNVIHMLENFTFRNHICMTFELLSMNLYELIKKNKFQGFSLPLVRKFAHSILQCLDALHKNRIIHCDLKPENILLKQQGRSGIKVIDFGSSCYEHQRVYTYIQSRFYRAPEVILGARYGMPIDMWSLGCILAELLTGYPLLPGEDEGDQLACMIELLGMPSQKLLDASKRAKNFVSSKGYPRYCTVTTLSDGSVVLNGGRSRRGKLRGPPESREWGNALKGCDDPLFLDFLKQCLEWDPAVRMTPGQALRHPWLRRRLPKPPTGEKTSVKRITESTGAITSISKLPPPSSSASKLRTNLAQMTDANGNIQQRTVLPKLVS
Protocol: as §1

DYRK3 = target: T3, DYRK3 (Homo sapiens, UniProt O43781); experiment: Protein kinase assay ([γ-33P]-ATP, RS peptide substrate), DYRK3; format: biochemical; details: 10 µM compound; read-out: Inhibition at 10 µM DYRK3 (class symbol)
T3 sequence (O43781 1-588): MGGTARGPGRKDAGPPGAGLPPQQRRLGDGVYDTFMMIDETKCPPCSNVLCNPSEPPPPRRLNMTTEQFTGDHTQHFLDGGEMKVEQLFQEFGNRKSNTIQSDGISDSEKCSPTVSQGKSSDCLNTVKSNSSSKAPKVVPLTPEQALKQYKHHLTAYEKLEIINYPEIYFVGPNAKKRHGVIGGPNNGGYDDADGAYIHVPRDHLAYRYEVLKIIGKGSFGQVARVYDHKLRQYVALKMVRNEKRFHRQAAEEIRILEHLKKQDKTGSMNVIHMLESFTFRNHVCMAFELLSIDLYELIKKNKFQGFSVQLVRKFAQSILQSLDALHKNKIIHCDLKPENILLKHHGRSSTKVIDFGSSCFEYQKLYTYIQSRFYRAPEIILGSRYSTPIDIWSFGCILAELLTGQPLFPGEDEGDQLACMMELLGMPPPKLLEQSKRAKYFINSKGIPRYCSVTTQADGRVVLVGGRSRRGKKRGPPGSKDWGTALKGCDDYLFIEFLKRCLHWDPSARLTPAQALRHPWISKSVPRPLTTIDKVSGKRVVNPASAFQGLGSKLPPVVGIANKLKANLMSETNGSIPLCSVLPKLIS
Protocol: as §1

CLK1 = CLK1 (Mus musculus, UniProt P22518); experiment: Protein kinase assay ([γ-33P]-ATP, RS peptide substrate), CLK1; format: biochemical; details: for IC50: 15 µM ATP
Protocol: as §1

CLK2 = CLK2 (Mus musculus, UniProt O35491); experiment: Protein kinase assay ([γ-33P]-ATP, RS peptide substrate), CLK2; format: biochemical; details: 15 µM ATP
Protocol: as §1

CLK3 = CLK3 (Mus musculus, UniProt O35492); experiment: Protein kinase assay ([γ-33P]-ATP, RS peptide substrate), CLK3; format: biochemical; details: 10 µM compound; read-out: Inhibition at 10 µM CLK3 (class symbol)
Protocol: as §1

CLK4 = CLK4 (Mus musculus, UniProt O35493); experiment: Protein kinase assay ([γ-33P]-ATP, RS peptide substrate), CLK4; format: biochemical; details: 15 µM ATP
Protocol: as §1

[3] = Cytotoxicity, cell viability by tetrazolium dye assay (XTT assay); format: cell-based; details: human, HeLa cells, read-out: Viability of treated HeLa cells relative to control cells
Protocol: To evaluate the applicability of the 2-substituted indole-3-carbonitrile compounds in cell culture experiments, we assessed toxicity of 6f, 6h, 6s and 13b on HeLa cells by viability assays (Table 4).
The inhibitors were added to the cultured cells from stock solutions in DMSO to the desired final concentration. For cytotoxicity assays, HeLa cells were grown in 96-well plates (20,000–30,000 cells per well) and incubated with the test compounds for 3 days before cell viability was evaluated with the help of a tetrazolium dye assay (XTT assay, AppliChem GmbH, Darmstadt, Germany).

[4] = system: DYRK1A (phosphorylation of T434 in SF3B1) in HeLa cells; experiment: Inhibition of endogenous DYRK1A activity in HeLa cells (phosphorylation of T434 in GFP-SF3B1-NT, Western blot); format: cell-based
DYRK1A [5] = target: T1, DYRK1A; experiment: Ligand-lipophilicity efficiency (pIC50 minus calculated logP)
Protocol: All new compounds were evaluated based on their physicochemical properties regarding Lipinski’s rule of five and the ligand-lipophilicity efficiency (LLE). Both concepts are used to assess the druglikeness of drug development candidates. […] LLE is calculated from pIC50 minus calculated logP [46].

[6] = Thermodynamic solubility, shake-flask method with HPLC quantification; format: physicochemical; details: phosphate buffer pH 7.4, 25 °C
Protocol: For solubility assays an aqueous phosphate buffer pH 7.4 was used. The buffer was prepared by dissolving Na2HPO4 × 2 H2O (298 mg), KH2PO4 (19 mg) and NaCl (800 mg) in water (100 mL). The pH was adjusted to 7.4 by addition of hydrochloric acid. The thermodynamic solubility was determined using a shake-flask method with quantification by a HPLC method. The test compounds (500 µg) were incubated with aqueous phosphate buffer pH 7.4 (400 µL) in sealed Whatman MiniUniPrep vials (GE Healthcare, Freiburg, Germany). The mixtures were shaken at 25 °C and 400 rpm for 24–96 h (IKA KS 3000 ic control, IKA-Werke, Staufen, Germany). After 24 h, 48 h and 72 h, the mixtures were visually inspected for remaining solids and the solids were filtered off. The concentrations in the resulting saturated solutions were quantified by isocratic HPLC using calibration with external standard. If equilibrium was not reached after 72 h, solubility of a further sample was determined after 96 h. For calibration, a stock solution of 10 mM of the test compounds in DMSO was prepared and the stock solution was diluted with ACN to suitable concentrations. The AUC at the wavelength maxima was used for quantification.

[7] = Kinetic solubility, laser nephelometry; format: physicochemical; details: phosphate buffer pH 7.4, nephelometry
Protocol: The kinetic solubility was determined using laser nephelometry. A stock solution of the test compounds in DMSO was prepared and further diluted with DMSO to achieve a dilution series of 8–12 solutions with different concentrations. The DMSO solutions (2 µL) were placed in a row on a 96-well plate and diluted with aqueous phosphate buffer pH 7.4 (198 µL). The well plate was scanned by a nephelometer (Nephelostar Plus, BMG Labtech, Ortenberg, Germany). Unsolved particles scatter the laser light which is detected by the nephelometer. The intensity of the scattered light is proportional to the particle concentration in the suspension. The intensity of the scattered light was plotted versus the concentration to obtain a kick off curve. The concentration at which the compounds began to precipitate was directly read out from the kick off curve.

GSK-3 = experiment: Protein kinase assay ([γ-33P]-ATP, GS-1 substrate), GSK-3
DYRK1B [8] = system: DYRK1B; parameters: method as in PMID 27766861, PMID 25268714, PMID 25264830; details: cited from earlier work
[9] = system: DYRK1A-mediated tau phosphorylation and Aβ production; parameters: method as in PMID 25556849; details: cellular; cited from earlier work
DYRK1A [10] = details: read-out: IC50 DYRK1A; cited from earlier work
[11] = pIC50 (DYRK1A) minus calculated logP

Sequence of CLK1 (P22518 whole entry): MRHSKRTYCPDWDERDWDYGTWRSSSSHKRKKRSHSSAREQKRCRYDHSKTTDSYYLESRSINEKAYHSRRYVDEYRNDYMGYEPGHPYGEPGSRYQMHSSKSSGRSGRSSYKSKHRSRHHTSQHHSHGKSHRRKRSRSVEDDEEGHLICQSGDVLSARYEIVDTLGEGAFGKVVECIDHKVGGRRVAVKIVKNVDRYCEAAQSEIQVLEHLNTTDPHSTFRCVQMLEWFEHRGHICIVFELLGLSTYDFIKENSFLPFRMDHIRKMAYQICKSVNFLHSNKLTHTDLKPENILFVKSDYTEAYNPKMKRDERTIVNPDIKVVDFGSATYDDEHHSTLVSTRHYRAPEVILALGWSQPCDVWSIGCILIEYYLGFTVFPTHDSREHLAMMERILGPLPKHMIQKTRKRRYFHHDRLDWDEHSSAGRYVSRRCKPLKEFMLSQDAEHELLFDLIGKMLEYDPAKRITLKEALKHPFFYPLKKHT
Sequence of CLK4 (O35493 whole entry): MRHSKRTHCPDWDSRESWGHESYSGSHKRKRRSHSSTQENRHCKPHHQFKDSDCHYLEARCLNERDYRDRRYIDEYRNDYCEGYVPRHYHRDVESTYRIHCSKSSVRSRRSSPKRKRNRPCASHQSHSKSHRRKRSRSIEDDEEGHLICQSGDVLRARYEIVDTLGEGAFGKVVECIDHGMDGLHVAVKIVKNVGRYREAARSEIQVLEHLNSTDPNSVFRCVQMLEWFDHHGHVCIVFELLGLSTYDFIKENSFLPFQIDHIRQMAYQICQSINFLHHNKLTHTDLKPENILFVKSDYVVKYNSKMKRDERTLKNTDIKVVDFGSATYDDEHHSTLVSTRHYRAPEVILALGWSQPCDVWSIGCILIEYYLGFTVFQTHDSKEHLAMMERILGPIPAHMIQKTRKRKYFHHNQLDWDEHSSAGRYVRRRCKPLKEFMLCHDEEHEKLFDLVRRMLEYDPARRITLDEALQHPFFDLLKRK
Sequence of CLK2 (O35491 whole entry): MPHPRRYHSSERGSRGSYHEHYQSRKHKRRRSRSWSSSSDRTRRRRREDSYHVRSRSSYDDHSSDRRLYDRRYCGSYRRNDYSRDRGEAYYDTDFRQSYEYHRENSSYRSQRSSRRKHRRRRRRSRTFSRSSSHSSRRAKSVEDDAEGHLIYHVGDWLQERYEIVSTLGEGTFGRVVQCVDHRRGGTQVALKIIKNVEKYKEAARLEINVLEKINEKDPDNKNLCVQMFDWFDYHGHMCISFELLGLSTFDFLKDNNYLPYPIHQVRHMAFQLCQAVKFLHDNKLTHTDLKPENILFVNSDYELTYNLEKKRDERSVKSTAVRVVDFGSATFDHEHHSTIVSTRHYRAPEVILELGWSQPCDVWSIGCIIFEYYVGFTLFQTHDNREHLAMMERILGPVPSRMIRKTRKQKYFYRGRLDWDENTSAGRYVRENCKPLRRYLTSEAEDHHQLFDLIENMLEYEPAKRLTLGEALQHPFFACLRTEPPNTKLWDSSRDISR
Sequence of DYRK1B (Q9Y463 whole entry, the tested form may be a part): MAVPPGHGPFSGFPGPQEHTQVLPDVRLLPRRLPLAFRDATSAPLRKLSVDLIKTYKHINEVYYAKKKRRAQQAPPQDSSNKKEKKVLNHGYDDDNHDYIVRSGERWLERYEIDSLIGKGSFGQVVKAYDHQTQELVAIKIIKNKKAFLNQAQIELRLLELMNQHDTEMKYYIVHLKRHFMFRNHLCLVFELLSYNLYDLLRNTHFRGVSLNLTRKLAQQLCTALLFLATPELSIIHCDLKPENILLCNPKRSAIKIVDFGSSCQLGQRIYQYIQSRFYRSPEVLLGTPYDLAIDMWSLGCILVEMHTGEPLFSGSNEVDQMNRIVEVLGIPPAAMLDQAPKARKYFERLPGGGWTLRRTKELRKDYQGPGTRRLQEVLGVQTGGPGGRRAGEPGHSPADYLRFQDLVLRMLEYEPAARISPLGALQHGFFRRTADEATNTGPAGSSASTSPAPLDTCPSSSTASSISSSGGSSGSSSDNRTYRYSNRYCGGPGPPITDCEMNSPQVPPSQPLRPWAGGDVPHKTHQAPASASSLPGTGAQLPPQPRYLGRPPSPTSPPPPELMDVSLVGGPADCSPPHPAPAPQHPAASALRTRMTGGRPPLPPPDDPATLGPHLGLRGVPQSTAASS
Sequence of CLK3 (O35492 whole entry): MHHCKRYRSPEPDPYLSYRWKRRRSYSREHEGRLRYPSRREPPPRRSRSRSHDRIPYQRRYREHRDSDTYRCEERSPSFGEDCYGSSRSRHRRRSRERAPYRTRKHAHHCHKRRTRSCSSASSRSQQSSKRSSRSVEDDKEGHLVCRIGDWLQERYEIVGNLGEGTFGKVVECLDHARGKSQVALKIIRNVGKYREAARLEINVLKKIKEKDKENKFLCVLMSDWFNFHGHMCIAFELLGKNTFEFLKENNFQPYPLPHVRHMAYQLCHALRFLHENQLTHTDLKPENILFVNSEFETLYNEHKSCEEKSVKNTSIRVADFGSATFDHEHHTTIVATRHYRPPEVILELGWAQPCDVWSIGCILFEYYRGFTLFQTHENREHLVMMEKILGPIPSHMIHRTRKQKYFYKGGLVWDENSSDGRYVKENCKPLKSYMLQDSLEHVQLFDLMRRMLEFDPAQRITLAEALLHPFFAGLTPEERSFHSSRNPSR

Structure (SMILES) | IC50 (DYRK1A [1]) [nM] | IC50 (DYRK1B [2]) [nM] | inhibition at 10 µM (DYRK2) [%] | inhibition at 10 µM (DYRK3) [%] | IC50 (CLK1) [nM] | IC50 (CLK2) [nM] | inhibition at 10 µM (CLK3) [%] | IC50 (CLK4) [nM] | viability at 3 days, 1 µM [3] [%] | viability at 3 days, 3 µM [3] [%] | viability at 3 days, 10 µM [3] [%] | LLE (DYRK1A [5]; Table S2) | LLE (DYRK1A [5]; [11]) | Sexp., therm., pH 7.4 [6] [µM] | Sexp., kin., pH 7.4 [7] | also measured
N#Cc1c(C2CCCC2)[nH]c2c(I)cccc12 [Compound 6s, 2-Cyclopentyl-7-iodo-1H-indole-3-carbonitrile] | 70 | 600 | < 20 | < 20 | 120 | 1000 | < 20 | 100 | 99 | 100 | 82 | 2.78 | 2.78 | <0.5 | 16.2 (15.2–17.3) µM | IC50 ([4]; Homo sapiens, HeLa cells expressing GFP-SF3B1-NT, 18 h, read-out: IC50 inhibition of endogenous DYRK1A activity in HeLa cells (pT434 SF3B1)): 520 nM; IC50 (GSK-3; read-out: IC50 GSK3, 15 µM ATP): > 10000 nM
N#Cc1cn(Cc2ccccc2)c2c(Br)cccc12 [Compound 13b, 1-Benzyl-7-bromo-1H-indole-3-carbonitrile] |  |  |  |  |  |  |  |  | 94 | 94 | 66 |  |  |  |  | remaining activity at 10 µM (DYRK1A [1]; 10 µM compound, compared to controls, read-out: Residual Activity at 10 µM DYRK 1A): 81%; remaining activity at 10 µM (CLK1; 10 µM compound, compared to controls, read-out: Residual Activity at 10 µM CLK1): 53%; Effect on the phosphorylation of SF3B1 on T434 ([4]; HeLa cells, negative control): did not affect; Residual Activity at 10 µM GSK3 (GSK-3; 10 µM compound, compared to controls): 114%
Cn1c(-c2ccccc2)c(C#N)c2cccc(I)c21 [Compound 13f, 7-Iodo-1-methyl-2-phenyl-1H-indole-3-carbonitrile] | 650 | 2100 | < 20 | < 20 | 600 | > 10000 | < 20 | 1000 |  |  |  | 1.54 | 1.54 | <0.5 | 37.5 (36.6–38.4) µM | Inhibition at 10 µM GSK3 (class symbol) (GSK-3; 10 µM compound): - (-: less than 20% inhibition at 10 µM, IC50 was not determined)
COC(=N)c1nc2ccc3ncnc(Nc4ccc(OC)cc4F)c3c2s1 [EHT 5372] |  |  |  |  |  |  |  |  |  |  |  |  |  |  |  | IC50 (DYRK1B [8]): […]; IC50 [9]: 1060 to 1170 nM; IC50 (DYRK1A [10]): 0.22 nM
